These results are taken from patent US10105410B2, “Heparanase inhibitory peptides and use thereof for treating clinical pathologies” (RAMBAM MED-TECH LTD., priority 2014, dated 2018).

Experiment [1] has as its system arterial thrombus in the carotid artery. In words: Carotid artery 90% stenosis arterial thrombosis, MSB staining. It counts as in vivo, mice. To be noted: single s.c. injection, 2 mg/kg; 24 hours after 90% stenosis. The protocol: In a complimentary experiment, mice returned to normal activity after being subjected to stenosis of 90% of the carotid artery. 24 hours later mice were sacrificed. Sections of the carotid artery were analyzed by MSB (Martin, Scarlet, Blue) staining. In the treatment group, following a single s.c. injection of the peptides, almost no fibrin (thrombus) was formed, while in the control group large arterial thrombus was observed. The results are exemplified in FIG. 6B for a control mouse (left panel) and a mouse treated with 2 mg/kg of the peptide set forth in SEQ ID NO: 4 (right panel).

A further experiment has as its system IVC thrombus. In words: Inferior vena cava (IVC) thrombosis model. It counts as in vivo, mice. The conditions noted are these: 2 mg/kg s.c. immediately before IVC exposure; no heparanase injected. The protocol: A large thrombus located distal to the IVC ligation (FIG. 6A, panel I) and after IVC was harvested (FIG. 6A, panel II), was observed. This observation was verified by H&E staining (FIG. 6A, panel III, ×10; FIG. 6A, panel IV, ×100). In subsequent experiments, peptides 3, 4 and 5 were introduced subcutaneously, at a dose of 2 mg/kg, immediately before the IVC exposure. Heparanase was not injected in this line of experiments. Each experimental group included 5 mice. The IVC was re-exposed (FIG. 6A, panel V) and then dissected (FIG. 6A, panel VI). Note that only engorged blood was present and thrombus distal to the IVC ligation was absent. This observation was verified by H&E staining (FIG. 6A, panel VII, ×10; FIG. 6A, panel VIII, ×100). […] Images were visualized through a 0.82 MDC objective lens, captured with a Nikon […] digital camera (Nikon, Tokyo, Japan), and processed with Adobe Photoshop software (Adobe Systems, San Jose, Calif.).

Experiment [2] relates to B16 mouse melanoma tumors. In words: Tumor vascularization, MSB stained tumor sections. It counts as in vivo, mice. The conditions noted are these: MSB staining.
Experiment [3] deals with procoagulant effect of heparanase. In words: Heparanase-induced coagulation activation in ICR mice, plasma TAT ELISA. Format: in vivo. To be noted: heparanase 0.5 mg/kg i.p.; peptide 1 or 2 mg/kg s.c. after 30 min; blood after 4 hours. The protocol: (§1) Thrombin-antithrombin complex (TAT) complex was evaluated according to the manufacturer recommendations by Enzygnost® TAT micro ELISA purchased from Siemens (Marburg, Germany). D-dimer assay was performed on the STA-R evolution analyzer (Diagnostica Stago) using recombinant STA-LIATEST D-DI kit (Diagnostica Stago).
Heparanase (Hepa) was injected intra-peritoneal to ICR mice at a dose of 0.5 mg/kg. After 30 min. peptides corresponding to SEQ ID NOs: 2-5 and 7 were injected at a dose of 1 mg/kg (dashed fill) or 2 mg/kg (solid fill) subcutaneously between the shoulders, into the loose skin over the neck. Blood was drawn after 4 hours, and the plasma was analyzed by ELISA for thrombin-antithrombin (TAT) levels.

The test system of a further experiment is coagulation activation. In words: Intra-peritoneal heparanase injection to ICR mice, plasma TAT, D-Dimer, IL-6. It counts as in vivo. The conditions noted are these: 0.5 mg/kg i.p.; blood after 4 hours. How it is done: as §1
Material and method used as in Example 1. Heparanase (Hepa) was injected intra-peritoneal at a dose of 0.5 mg/kg to ICR mice. After 4 hours blood was drawn and the plasma was studied by ELISA to thrombin-antithrombin complex (TAT), D-Dimer as markers of coagulation activation and IL-6 as marker of sepsis severity. Please note that when compared with the control group (PBS) heparanase (Hepa) increased the levels of TAT and D-Dimer in a similar magnitude to that of LPS injected at a dose of 5 mg/kg that cause a moderate sepsis (FIG. 1A, B).

“AEICLLPLDYGPCR [SEQ ID NO: 4, peptide derived from TFPI-2]”: in experiment [1], the “fibrin (thrombus) formation in carotid artery” value was “early thrombus”. Also, the “clot formation / thrombus distal to the IVC ligation” value (“clot formation / thrombus distal” for short) in the experiment on IVC thrombus was “absent”. Further, in experiment [2], the tumor vascularization entry is “little to null vascularization”.
With “ICLLPLDYGPCRAL [SEQ ID NO: 3, peptide derived from TFPI-2]”, in the experiment with IVC thrombus, the “clot formation / thrombus distal” value is “absent”.
Turning to “NANNFYTWEAC [SEQ ID NO: 7, peptide derived from TFPI-2]”, in experiment [3], the “procoagulant effect of heparanase (plasma TAT levels)” value is recorded as “partially inhibited”.
Consider “NNAEICLLPLDYGP [SEQ ID NO: 5, peptide derived from TFPI-2]”, for which the “clot formation / thrombus distal” value in the experiment on IVC thrombus is “absent”.
With “NNFYTWEACDDACW [SEQ ID NO: 2, peptide derived from TFPI-2]”, the “procoagulant effect of heparanase (plasma TAT levels)” value in experiment [3] was “partially inhibited”.

B1: heparanase: Single chain GS3 heparanase construct comprising the 8 and 50 kDa subunits, purified from baculovirus-infected cells (protein)
chain: QDVVDLDFFTQEPLHLVSPSFLSVTIDANLATDPRFLILLGSPKLRTLARGLSPAYLRFGGTKTDFLIFDPKKESTFEERSYWQSQVNQDICKYGSIPPDVEEKLRLEWPYQEQLLLREHYQKKFKNSTYSRSSVDVLYTFANCSGLDLIFGLNALLRTADLQWNSSNAQLLLDYCSSKGYNISWELGNEPNSFLKKADIFINGSQLGEDFIQLHKLLRKSTFKNAKLYGPDVGQPRRKTAKMLKSFLKAGGEVIDSVTWHHYYLNGRTATKEDFLNPDVLDIFISSVQKVFQVVESTRPGKKVWLGETSSAYGGGAPLLSDTFAAGFMWLDKLGLSARMGIEVVMRQVFFGAGNYHLVDENFDPLPDYWLSLLFKKLVGTKVLMASVQGSKRRKLRVYLHCTNTDNPRYKEGDLTLYAINLHNVTKYLRLPYPFSNKQVDKYLLRPLGPHGLLSKSVQLNGLTLKMVDDQTLPPLMEKPLRPGSSLGLPAFSYSFFVIRNAKVAACI
Consider B1, for which, in the experiment with coagulation activation, the “D-Dimer level compared with control group (PBS)” value is recorded as “increased”, the “IL-6 level compared with control group” value is listed as “did not increase” and the “TAT level compared with control group (PBS)” value is given as “increased”.
